According to patent US8354436B2 (4SC Discovery GmbH, priority 2011, dated 2013):
Where two headings read alike, the source gives them in different places.

Columns and labels:
Type in all cases: cell-based
Conditions in all cases: 48 hours
IFN-γ = IFN-γ production by PHA-stimulated human PBMC (OptEIA human IFN-g ELISA)
Summary of the method: (§1)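 Compounds tested on PHA (2 μg/ml)-stimulated human PBMC, 1×10^5 cells/well, 48 h, at 10, 1, 0.1 and 0.01 μM or semilog titration for IC50. Cytokines in culture supernatant: IL-17AA/AF by Luminex BioPlex; IL-17AA, IL-17FF, IFN-γ by separate ELISAs.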

IL-17FF = IL-17FF production by PHA-stimulated human PBMC (human IL-17F ELI-Pair)
Summary of the method: as §1

[1] = system: PBMC from healthy human donors; assay: T cell proliferation assay (PHA-stimulated human PBMC, BrdU ELISA)
Summary of the method: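 Proliferation was quantified by BrdU ELISA 48 hours after starting culture of 1×10⁵ human PBMC per well with test compound and 2 μg/ml phytohaemagglutinin. Cells came from healthy donors via Ficoll separation and were kept in RPMI1640 with 10% dialysed heat-inactivated FCS.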

[2] = PHA-stimulated human PBMC, column C, read-out: IC50 (IFNγ)
[3] = PHA-stimulated human PBMC, column B, read-out: IC50 (IL-17FF)
[4] = PHA-stimulated human PBMC, column D, read-out: IC50 (Tcell proliferation)

Row | IC50 (IFN-γ; [2]) [µM] | IC50 (IL-17FF; [3]) [µM] | SMILES | IC50 [1, 4] [µM] | IC50 (IFN-γ; human PBMC, 2 μg/ml PHA, read-out: C: IC50 (IFNγ)) [µM] | IC50 (IL-17FF; human PBMC, 2 μg/ml PHA, read-out: B: IC50 (IL-17FF)) [µM] | IC50 ([1]; human PBMC, 2 μg/ml PHA, read-out: D: IC50 (Tcell proliferation)) [µM]
1 | 1 to 10 | 1 to 10 | CCOC(=O)c1c(-c2c(F)cccc2Cl)noc1-c1cnn(-c2ccc(NC(C)=O)cc2)c1C(F)(F)F [IB-99, ethyl 5-(1-(4-acetamidophenyl)-5-(trifluoromethyl)-1H-pyrazol-4-yl)-3-(2-chloro-6-fluorophenyl)isoxazole-4-carboxylate] | 1 to 10 |  |  | 
2 | 0.1 to 1 | 0.1 to 1 | CCOC(=O)c1c(-c2c(F)cccc2Cl)noc1-c1cnn(CCN2CCOCC2)c1C(F)(F)F [IB-97, ethyl 3-(2-chloro-6-fluorophenyl)-5-(1-(2-morpholinoethyl)-5-(trifluoromethyl)-1H-pyrazol-4-yl)isoxazole-4-carboxylate] | 1 to 10 |  |  | 
3 | 0.1 to 1 | 0.1 to 1 | CNC(=O)c1c(-c2ccccc2Cl)noc1-c1cnn(-c2cccc(F)c2)c1C(F)(F)F [Example I-96, 3-(2-chlorophenyl)-5-(1-(3-fluorophenyl)-5-(trifluoro-methyl)-1H-pyrazol-4-yl)-N-methylisoxazole-4-carboxamide] | 0.1 to 1 |  |  | 
4 | 1 to 10 | 1 to 10 | CCOC(=O)c1c(-c2c(F)cccc2Cl)noc1-c1cnn(Cc2ccccc2F)c1C(F)(F)F [IB-80, ethyl 3-(2-chloro-6-fluorophenyl)-5-(1-(2-fluorobenzyl)-5-(trifluoromethyl)-1H-pyrazol-4-yl)isoxazole-4-carboxylate] | 1 to 10 |  |  | 

Second part, the molecule before the results:

Row | SMILES | IC50 (IFN-γ; [2]) [µM] | IC50 (IL-17FF; [3]) [µM] | IC50 [1, 4] [µM] | IC50 (IFN-γ; human PBMC, 2 μg/ml PHA, read-out: C: IC50 (IFNγ)) [µM] | IC50 (IL-17FF; human PBMC, 2 μg/ml PHA, read-out: B: IC50 (IL-17FF)) [µM] | IC50 ([1]; human PBMC, 2 μg/ml PHA, read-out: D: IC50 (Tcell proliferation)) [µM]
5 | CCOC(=O)c1c(-c2ccncc2F)noc1-c1cnn(-c2ccccc2F)c1C(F)(F)F [IB-15, ethyl 5-(1-(2-fluorophenyl)-5-(trifluoromethyl)-1H-pyrazol-4-yl)-3-(3-fluoropyridin-4-yl)isoxazole-4-carboxylate] | 0.1 to 1 | 1 to 10 | 0.1 to 1 |  |  | 
6 | CCOC(=O)c1c(-c2ccncc2F)noc1-c1cnn(-c2cccc(Cl)c2)c1C(F)(F)F [IB-4, ethyl 5-(1-(3-chlorophenyl)-5-(trifluoromethyl)-1H-pyrazol-4-yl)-3-(3-fluoropyridin-4-yl)isoxazole-4-carboxylate] | 0.1 to 1 | 0.1 to 1 | 1 to 10 |  |  | 
7 | Oc1csc(-c2c(-c3c(F)cccc3Cl)noc2-c2cnn(-c3cccc(F)c3)c2C(F)(F)F)n1 [Example 9, 2-(3-(2-chloro-6-fluorophenyl)-5-(1-(3-fluorophenyl)-5-(trifluoromethyl)-1H-pyrazol-4-yl)isoxazol-4-yl)thiazol-4-ol] |  |  |  | 0.1 to 1 | 0.1 to 1 | 0.1 to 1
8 | CCOC(=O)c1c(-c2c(F)cccc2Cl)noc1-c1cnn(-c2ccccc2N)c1C(F)(F)F [IB-98, ethyl 5-(1-(2-aminophenyl)-5-(trifluoromethyl)-1H-pyrazol-4-yl)-3-(2-chloro-6-fluorophenyl)isoxazole-4-carboxylate] | 0.01 to 0.1 | 0.01 to 0.1 | 0.01 to 0.1 |  |  | 
9 | CCOC(=O)c1c(-c2ccncc2F)noc1-c1cnn(-c2ccccn2)c1C(F)(F)F [IB-8] | 1 to 10 | 1 to 10 | 1 to 10 |  |  | 
10 | NC(=S)c1c(-c2c(F)cccc2Cl)noc1-c1cnn(-c2ccccc2F)c1C(F)(F)F [IB-102, 3-(2-chloro-6-fluorophenyl)-5-(1-(2-fluorophenyl)-5-(trifluoromethyl)-1H-pyrazol-4-yl)isoxazole-4-carbothioamide] | 0.1 to 1 | 0.1 to 1 | 0.1 to 1 |  |  | 
11 | CCOC(=O)c1c(-c2onc(-c3c(F)cccc3Cl)c2C(=O)OC)cnn1-c1ccc(Cl)cc1Cl [Example I-6, methyl 3-(2-chloro-6-fluorophenyl)-5-(1-(2,4-dichlorophenyl)-5-(ethoxycarbonyl)-1H-pyrazol-4-yl)isoxazole-4-carboxylate] | 1 to 10 | 1 to 10 | 1 to 10 |  |  | 
12 | Fc1cccc(Cl)c1-c1noc(-c2cnn(-c3ccccc3)c2C(F)(F)F)c1Br [Example I-145, 4-bromo-3-(2-chloro-6-fluorophenyl)-5-(1-phenyl-5-(trifluoromethyl)-1H-pyrazol-4-yl)isoxazole] | < 0.01 | 0.01 to 0.1 | 0.01 to 0.1 |  |  | 
